# Laboratory results reported in publication PMC10914731, “Homo-BacPROTAC-induced degradation of ClpC1 as a strategy against drug-resistant mycobacteria” (Nature Communications, 2024).
# Several values for one entry are separate records, joined by “and”; a condition that tells them apart may be missing. Equal entries are not always repeated. Where two headings read alike, the source gives them in different places.
# Experiments:
# [1] = target: ClpC1 NTD protein (M. tuberculosis) (Mycobacterium tuberculosis, UniProt P9WPC9); assay: biochemical; format: binding
# Chain of ClpC1 NTD protein (M. tuberculosis) (P9WPC9 1-156, looked up, natural form): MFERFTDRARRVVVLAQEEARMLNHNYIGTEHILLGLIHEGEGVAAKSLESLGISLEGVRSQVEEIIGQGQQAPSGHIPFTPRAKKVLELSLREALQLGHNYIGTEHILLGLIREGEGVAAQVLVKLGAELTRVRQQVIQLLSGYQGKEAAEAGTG
# [2] = test system: Caco-2 monolayers; assay: in vitro
# How it was run: (§1)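 Permeability across Caco-2 monolayers was measured in both directions, apical-to-basolateral and basolateral-to-apical, in 10^-6 cm s-1. Efflux ratio = P(B−A)/P(A−B). Intrinsic permeability is the mean of P(A−B) and P(B−A).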
# [3] = format: in vitro ADME, Mice
# How it was run: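 Clearance values are expressed as % of liver blood flow, derived from first-order half-lives using the well-stirred liver model. Depletion of 1 µmol/l compound is followed by HPLC-MS/MS in NADPH-supplemented microsomes (0.5 mg/ml) at 37 °C, pH 7.5.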
# [4] = test system: Msm 700084; assay: microbe, parasite or virus in culture; format: cell-based
# [5] = test system: Mtb (moxR) FNDR-M1; assay: microbe, parasite or virus in culture; format: cell-based
# [6] = test system: Mtb (katG del) ATCC 35822; assay: microbe, parasite or virus in culture; format: cell-based
# [7] = test system: Mtb # 8673; assay: microbe, parasite or virus in culture; format: cell-based
# [8] = test system: Staphylococcus aureus; assay: MIC ESKAPES panel, Staphylococcus aureus; format: cell-based
# Method: (§2) Minimum inhibitory concentration (MIC) against ESKAPES panel of Gram positive and Gram negative pathogens (Enterococcus faecium, Staphylococcus aureus, Klebsiella pneumoniae, Acinetobacter baumannii, Pseudomonas aeruginosa, Enterobacter cloacae and Salmonella typhimurium [ESKAPES panel]) were determined at the FNDR by the standard broth dilution method [CLSI, M100]. […] Mueller Hinton broth (MHB) medium was used to grow ESKAPES panel strains. The individual cultures were added as 200 μL (inoculum of 3–7 × 10^5 cfu/ml) to the respective assay plates in each well to all columns, except the media control (200 μL of medium). […] The assay plates were incubated at 37 °C, and the results were noted on the 2nd day as turbidometric readout. The clear wells indicated inhibition of growth, while the turbid wells indicated uninhibited growth.
# [9] = test system: Enterobacter cloacae; assay: MIC ESKAPES panel, Enterobacter cloacae; format: cell-based
# Method: as §2
# [10] = test system: Mycobacterium fortuitum; assay: microbe, parasite or virus in culture; format: cell-based
# [11] = test system: Mycobacterium intracellulare; assay: microbe, parasite or virus in culture; format: cell-based
# [12] = test system: Msm #607; assay: Minimum bactericidal concentration (MBC), Msm #607; format: cell-based, Mycobacterium smegmatis; conditions: for MBC: Mycolicibacterium smegmatis
# [13] = target: His6-tagged ClpC1-NTD substrate, M. smegmatis ClpC1P1P2 (UniProt A0R574+P9WPC9); assay: biochemical; format: biochemical
# Chain of His6-tagged ClpC1-NTD substrate, M. smegmatis ClpC1P1P2 (P9WPC9 1-156, looked up, natural form): as above
# Chain of His6-tagged ClpC1-NTD substrate, M. smegmatis ClpC1P1P2 (A0R574 whole entry): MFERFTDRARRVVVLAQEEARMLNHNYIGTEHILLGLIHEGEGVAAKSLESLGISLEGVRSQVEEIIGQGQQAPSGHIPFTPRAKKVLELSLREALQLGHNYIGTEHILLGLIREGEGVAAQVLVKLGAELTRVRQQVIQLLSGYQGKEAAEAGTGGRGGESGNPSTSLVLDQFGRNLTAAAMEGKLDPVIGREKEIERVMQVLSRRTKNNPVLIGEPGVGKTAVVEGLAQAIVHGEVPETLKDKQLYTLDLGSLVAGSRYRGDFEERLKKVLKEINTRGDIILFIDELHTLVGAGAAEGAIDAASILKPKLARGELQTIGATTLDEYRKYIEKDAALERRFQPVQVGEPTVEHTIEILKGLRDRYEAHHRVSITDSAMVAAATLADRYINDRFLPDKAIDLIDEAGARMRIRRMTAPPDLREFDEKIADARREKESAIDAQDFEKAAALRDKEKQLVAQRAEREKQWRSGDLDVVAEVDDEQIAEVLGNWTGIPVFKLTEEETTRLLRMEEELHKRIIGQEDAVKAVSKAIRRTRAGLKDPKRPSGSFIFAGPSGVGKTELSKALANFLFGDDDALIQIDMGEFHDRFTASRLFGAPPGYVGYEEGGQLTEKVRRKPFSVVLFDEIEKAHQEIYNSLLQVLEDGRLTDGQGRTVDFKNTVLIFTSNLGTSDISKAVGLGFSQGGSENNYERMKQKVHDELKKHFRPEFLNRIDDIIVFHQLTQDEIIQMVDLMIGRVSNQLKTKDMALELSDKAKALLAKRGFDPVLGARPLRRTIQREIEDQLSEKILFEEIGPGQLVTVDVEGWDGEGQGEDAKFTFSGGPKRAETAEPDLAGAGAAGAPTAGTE
# [14] = test system: Mtb H37Rv in THP-1 macrophages; assay: Intracellular MIC assay in THP-1 macrophages; format: cell-based, Mycobacterium tuberculosis; parameters: Emax: unit not given here
# [15] = in vitro; conditions: human; for Papp A→B: apical to basolateral
# How it was run: as §1
# [16] = SPR, read-out: ClpC1-NTD KD Mean ± SD
# [17] = Mycolicibacterium smegmatis, 700084, read-out: MIC Msm 700084
# [18] = M. tuberculosis FNDR-M1, single well replicates
# [19] = Mycobacterium tuberculosis, M. tuberculosis FNDR-M1, single well replicates
# [20] = Mycobacterium tuberculosis, Mtb (moxR) FNDR-M1, mean ± SD, n = 3 well replicates
# [21] = M. tuberculosis ATCC 35822, single well replicates
# [22] = Mycobacterium tuberculosis, ATCC35822, M. tuberculosis ATCC 35822, single well replicates
# [23] = Mycobacterium tuberculosis, ATCC35822, Mtb (katG del) ATCC 35822, mean ± SD, n = 3 well replicates
# [24] = Mycobacterium tuberculosis, mean, n = 2 well replicates
# [25] = Mycobacterium tuberculosis, single well replicates
# [26] = single well replicates, listed as 12 (UdSBI-4377)
# [27] = Staphylococcus aureus, Gram positive, n = 3 well replicates
# [28] = Staphylococcus aureus, Gram-Positive Bacteria, replicates 1-3
# [29] = Enterobacter cloacae, Gram negative, n = 3 well replicates
# [30] = Enterobacter cloacae, Gram-Negative Bacteria, replicates 1-3
# [31] = Experiment 2, three replicate columns
# [32] = Experiment 2, three replicate columns, read-out: MIC (µM) Mycobacterium fortuitum
# [33] = Mycolicibacterium fortuitum, Experiment 1, read-out: MIC Mycobacterium fortuitum
# [34] = Mycolicibacterium fortuitum, Experiment 2, three replicate columns, read-out: MIC (µM) Mycobacterium fortuitum
# [35] = Mycolicibacterium fortuitum, Experiment 2, three replicate columns, read-out: MIC (µg/ml) Mycobacterium fortuitum
# [36] = Mycolicibacterium fortuitum, mean ± SD, read-out: MIC Mycobacterium fortuitum
# [37] = Experiment 2, three replicate columns, read-out: MIC (µM) Mycobacterium intracellulare
# [38] = Mycobacterium intracellulare, Experiment 1, read-out: MIC Mycobacterium intracellulare
# [39] = Mycobacterium intracellulare, Experiment 2, three replicate columns, read-out: MIC (µM) Mycobacterium intracellulare
# [40] = Mycobacterium intracellulare, Experiment 2, three replicate columns, read-out: MIC (µg/ml) Mycobacterium intracellulare
# [41] = Mycobacterium intracellulare, mean ± SD, read-out: MIC Mycobacterium intracellulare
# [42] = ATCC607, read-out: MBC (from Set 3) Msm ATCC 607
compound,measurement,setting,value
COC(c1ccccc1)C1NC(=O)C(C)NC(=O)C(CC(C)CO)N(C)C(=O)C(Cc2cn(C)c3ccccc23)NC(=O)C(Cc2cn(CCCCCn3cc(CC4NC(=O)C(CC(C)C)N(C)C(=O)C(C(C)C)NC(=O)C(C(OC)c5ccccc5)NC(=O)C(C)NC(=O)C(CC(C)CO)N(C)C(=O)C(Cc5cn(C)c6ccccc56)NC4=O)nn3)nn2)NC(=O)C(CC(C)C)N(C)C(=O)C(C(C)C)NC1=O (stereo not drawn) [Compound 12],Kd,"[1]; SPR, individual measurements (source data), listed as 12 (UdSBI-4377), read-out: KD ClpC1-NTD",0.169 nM and 0.284 nM and 0.283 nM and 0.407 nM and 0.412 nM and 0.327 nM and 0.181 nM and 0.203 nM and 0.279 nM
same,Kd,[1]; [16],0.28 ± 0.08 nM
same,"improvement of SPR KD to ClpC1-NTD, dimer versus monomer (factor)",[1]; monomeric 10 to dimeric 12 / Homo-BacPROTACs versus monomeric compounds,10
same,CACO permeability PEAB,"[2]; human, Caco-2",0.73 ×10⁻⁶ cm/s
same,CACO permeability PEBA,"[2]; human, Caco-2",0.25 ×10⁻⁶ cm/s
same,Caco-2 Efflux ratio,"[2]; human, Caco-2",0.3
same,Caco-2 Int. Perm,"[2]; human, Caco-2",0.5
same,Caco-2 permeability P (A-B),"[2]; human, Caco-2",0.7
same,Caco-2 permeability P (B-A),"[2]; human, Caco-2",0.2
same,Microsomal Stability Mice,"[3]; mouse, microsomes, pH 7.5",< 24 %Qh
same,Microsomal Stability Mouse QH,"[3]; mouse, microsomes, pH 7.5",<24.2%
same,MIC,"[4]; Mycolicibacterium smegmatis, 700084, single determinations, read-out: Msm 700084 MIC",> 50 µM
same,MIC,[4]; [17],> 50 µM
same,MIC,[5]; [18],0.195 µM
same,MIC,[5]; [19],0.195 µM
same,MIC,[5]; [20],0.2 µM
same,MIC,[6]; [21],0.098 µM
same,MIC,[6]; [22],0.098 µM
same,MIC,[6]; [23],0.1 µM
same,MIC,[7]; [24],< 0.1 µM and < 0.2 µg/mL
same,MIC,[7]; [25],< 0.1 µM and < 0.19 µg/mL
same,MIC,[7]; [26],<0.1 µM
same,MIC Mtb # 8673,[7]; [26],<0.19 µg/mL
same,MIC,"[8]; Gram-Positive Bacteria, replicates 1-3, listed as 12 (UdSBI-4377)",>50 µM
same,MIC,[8]; [27],> 50 µM
same,MIC,[8]; [28],> 99 µg/mL
same,MIC,[9]; [29],> 50 µM
same,MIC,[9]; [30],> 99 µg/mL
same,MIC,"[9]; Gram-Negative Bacteria, replicates 1-3, listed as 12 (UdSBI-4377)",>50 µM
same,MIC,"[10]; Experiment 1, listed as 12 (UdSBI-4377), read-out: MIC Mycobacterium fortuitum",>50 µM
same,MIC (µg/ml) Mycobacterium fortuitum,[10]; [31],>99.02 µg/mL
same,MIC,[10]; [32],>50 µM
same,MIC,[10]; [33],> 99 µg/mL
same,MIC,[10]; [34],> 50 µM
same,MIC,[10]; [35],> 99 µg/mL
same,MIC,[10]; [36],> 50 µM
same,MIC,"[11]; Experiment 1, listed as 12 (UdSBI-4377), read-out: MIC Mycobacterium intracellulare",>50 µM
same,MIC (µg/ml) Mycobacterium intracellulare,[11]; [31],>99.02 µg/mL
same,MIC,[11]; [37],>50 µM
same,MIC,[11]; [38],> 99 µg/mL
same,MIC,[11]; [39],> 50 µM
same,MIC,[11]; [40],> 99 µg/mL
same,MIC,[11]; [41],> 50 µM
same,colony growth after replating (MBC assay),[12],growth of colonies could be observed across all tested concentrations
same,MBC,[12]; [42],> 99 µg/mL and > 50 µM
same,MBC,[12]; read-out: MBC Msm #607,> 50 µM and > 99 µg/mL
same,DC50,"[13]; read-out: DC50, single measurements",10300 nM and 9300 nM and 5300 nM and 8300 nM and 7600 nM
same,DC50,[13]; read-out: DC50 M.smegmatis ClpC1P1P2 Mean,8400 nM
same,Dmax,[13]; read-out: DMax M.smegmatis ClpC1P1P2 Mean,81%
same,Emax,[14],0.28
CO[C@H](c1ccccc1)[C@@H]1NC(=O)[C@H](C)NC(=O)[C@H](C[C@@H](C)CO)N(C)C(=O)[C@H](Cc2cn(Cc3cn(CCOCCn4cc(Cn5cc(C[C@@H]6NC(=O)[C@H](C(C)C)NC(=O)[C@H](CC(C)C)N(C)C(=O)[C@H](C(C)C)NC(=O)[C@H]([C@H](OC)c7ccccc7)NC(=O)[C@H](C)NC(=O)[C@H](C[C@@H](C)CO)N(C)C6=O)c6ccccc65)nn4)nn3)c3ccccc23)NC(=O)[C@H](C(C)C)NC(=O)[C@H](CC(C)C)N(C)C(=O)[C@H](C(C)C)NC1=O [Compound 6],koff,"[1]; SPR dissociation rate constant, read-out: koff ClpC1-NTD Mean ± SD",0.001 s⁻¹
same,Kd,"[1]; SPR, individual measurements (source data), read-out: KD ClpC1-NTD",1.36 nM and 1.13 nM and 0.535 nM and 0.649 nM
same,koff ClpC1-NTD,"[1]; SPR, single independent measurements",0.001 s⁻¹
same,Kd,[1]; [16],0.9 ± 0.4 nM
same,Papp A→B,"[15]; Caco-2, CACO permeability PEAB",< 2.6 ×10⁻⁶ cm/s
same,Papp A→B,"[15]; Caco-2, Caco-2 permeability P (A-B)",< 1.7 ×10⁻⁶ cm/s
same,Papp B→A,"[15]; Caco-2, Caco-2 permeability P (B-A), basolateral to apical",2.4 ×10⁻⁶ cm/s
same,Caco-2 Int. Perm,[2]; mean value of P(A−B) and P(B−A),2.1 10-6 cm s-1
same,Microsomal Stability Mouse QH,[3]; Mouse,42.900%
same,Microsomal Stability Mice,[3]; clearance in microsomes,43 %Qh
same,MIC,[4]; [17],20.8 ± 15.1 µM
same,"1-Dmax, single measurements","[13]; Msm, Measurement 1-6",73.6% and 67.7% and 87.3%
same,1-Dmax (percent substrate remaining at maximal degradation),"[13]; Msm, Measurement 1-6, read-out: 1-Dmax, single measurements",83.7%
same,1-Dmax (percent substrate remaining at maximal degradation),"[13]; Msm, mean of the measurements, read-out: 1-Dmax, Mean",78%
same,DC50,"[13]; Msm, mean of the measurements, read-out: DC50, Mean",7500 nM
"COc1c(N2C[C@@H]3CCCN[C@@H]3C2)c(F)cc2c(=O)c(C(=O)O)cn(C3CC3)c12 [Moxifloxacin, reference compound]",MIC,[5]; [18],19.93 µM
same,MIC,[5]; [19],19.9 µM
same,MIC,[5]; [20],19.9 µM
same,MIC,[6]; [21],0.31 µM
same,MIC,[6]; [22],0.31 µM
same,MIC,[6]; [23],0.3 µM
same,MIC,[7]; [24],0.1 µM and 0.1 µg/mL
same,MIC,[7]; [25],0.15 µM and 0.06 µg/mL
same,MIC,[7]; single well replicates,0.15 µM
same,MIC Mtb # 8673,[7]; single well replicates,0.06 µg/mL
same,MIC,[8]; [27],0.3 µM
same,MIC,[8]; [28],0.31 µM and 0.125 µg/mL
same,MIC,[9]; [29],0.3 µM
same,MIC,[9]; [30],0.31 µM and 0.125 µg/mL
same,MIC (µg/ml) Mycobacterium fortuitum,[10]; [31],0.06 µg/mL
same,MIC,[10]; [32],0.15 µM
same,MIC,[10]; [33],0.0747 µM and 0.03 µg/mL
same,MIC,[10]; [34],0.15 µM
same,MIC,[10]; [35],0.06 µg/mL
same,MIC,[10]; [36],0.1 µM
same,MIC (µg/ml) Mycobacterium intracellulare,[11]; [31],0.50 µg/mL
same,MIC,[11]; [37],1.25 µM
same,MIC,[11]; [38],1.25 µM and 0.5 µg/mL
same,MIC,[11]; [39],1.25 µM
same,MIC,[11]; [40],0.5 µg/mL
same,MIC,[11]; [41],1.2 µM
same,MBC,[12]; [42],0.13 µg/mL and 0.31 µM
same,MBC,"[12]; read-out: MBC Msm #607, individual example",0.3 µM and 0.1 µg/mL
